Measured values from PubChem BioAssay (NCI).
“And” between values parts separate entries of the source, which are not always exact repeats. Equal values may be shown once.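 Compound exposure: 48 hours, 5 concentrations, 96-well plates. Here, GI50 denotes the concentration required for 50% inhibition of growth. TGI: concentration producing complete growth inhibition.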

What was measured:
Assay in all cases: NCI-60 cell line screen, 48 h
[1] = tested on: RXF 393 renal
[2] = tested on: RPMI-8226 leukemia
[3] = tested on: SF-295 CNS
[4] = tested on: ACHN renal
[5] = tested on: HCT-15 colon
[6] = tested on: COLO 205 colon
[7] = tested on: SW-620 colon
[8] = tested on: SK-MEL-5 melanoma
[9] = tested on: HCC-2998 colon
[10] = tested on: NCI-H23 lung

Molecule | GI50 [1] | TGI [1] | GI50 [2] | TGI [2] | GI50 [3] | TGI [3] | GI50 [4] | TGI [4] | GI50 [5] | TGI [5] | GI50 [6] | TGI [6] | GI50 [7] | TGI [7] | GI50 [8] | TGI [8] | GI50 [9] | TGI [9] | GI50 [10] | TGI [10]
H-HIIKKIRTWYRKAWHVLGKV-NH2 | 4.23 µM | 25.1 µM | 8.62 µM | 45 µM | 4.8 µM | 22.8 µM | 13.2 µM | 28.6 µM | 4.24 µM | 64.7 µM | 2.11 µM | 4.92 µM | 9.53 µM | > 100 µM | 3.94 µM | 19.5 µM | 3.88 µM | 31.2 µM | 4.94 µM | 31.1 µM
Cc1ccc(-c2nc(N)c(C#N)c3c2CCOc2c-3ccc3ccccc23)cc1 | 0.266 µM | 6.29 µM | 0.29 µM | 2.26 µM | 0.144 µM | 1.87 µM | 0.847 µM | > 36.1 µM | 0.0543 µM |  | 0.418 µM | > 100 µM | 1.76 µM | > 93.4 µM | 0.0819 µM | 1.14 µM | 0.142 µM |  | 0.521 µM | 66.7 µM
N#Cc1c(N)nc(NCc2ccccc2)c(C#N)c1-c1ccccc1Cl | 24.6 µM | > 100 µM | 48.6 µM | > 100 µM | 12.6 µM | 76.2 µM | 5.73 µM | 62.7 µM | > 100 µM | > 100 µM | 74 µM | > 100 µM | 18.9 µM | > 100 µM | 51.3 µM | > 100 µM | > 100 µM | > 100 µM | 17.5 µM | > 100 µM
Nc1ccc(-c2nc3ccccc3o2)cc1S | 29.4 µM | 59.6 µM | 12.4 µM | 32 µM | 13.6 µM | 28.8 µM | 12.1 µM | 24.4 µM | 16.5 µM | 30.3 µM | 27.5 µM | > 100 µM | 20.7 µM | 44.5 µM | 12.5 µM | 25.1 µM | 14.4 µM | 32.2 µM | 14.5 µM | 35.6 µM
O=C(Nc1ccc(OCc2nnc(-c3ccccc3)o2)c(F)c1)Nc1ccc(Cl)c(C(F)(F)F)c1 | 2.62 µM | 8.98 µM | 1.11 µM | 3.57 µM | 2.18 µM | 6.83 µM | 1.84 µM | 4.42 µM | 2.28 µM | 14.8 µM | 2.11 µM | 5.52 µM | 3.6 µM | 35.4 µM | 1.74 µM | 3.59 µM | 2.58 µM | 7.83 µM | 2.37 µM | 8.09 µM
COC(=O)CS(=O)c1ccccc1 (stereo not drawn) |  | 49.2 µM |  | 52.2 µM |  | > 100 µM |  | > 100 µM |  | > 100 µM |  | > 100 µM |  | > 100 µM |  | > 100 µM |  | > 100 µM |  | > 100 µM
Cc1nn(-c2ccccc2)c2nc3c(nc12)C1=NCCN1C(c1ccc(Cl)cc1)N3 (stereo not drawn) | 1.56 µM | 3.07 µM | 2.22 µM | 5.28 µM | 2.56 µM | 8.24 µM | 3.62 µM | 13.2 µM | 2.89 µM | 9.75 µM | 1.84 µM | 3.36 µM | 1.9 µM | 3.96 µM | 1.57 µM | 3.12 µM | 1.92 µM | 3.49 µM | 15.3 µM | 31.6 µM
COc1cccc(Cn2c(-c3nonc3NC(C)=O)nc3ccccc32)c1 | 1.92 µM | 5.74 µM | 5.34 µM | > 100 µM | 1.85 µM | 78.7 µM | 8.41 µM | > 100 µM | 3.59 µM | > 100 µM | 3.45 µM | > 100 µM | 3.08 µM | > 100 µM | 3.76 µM | > 100 µM | 5.83 µM | > 100 µM | 6.42 µM | > 100 µM
CC1(C)N=C(N)N=C(N)N1c1cccc(CCCCOc2ccccc2)c1 | 0.147 µM | > 100 µM | 0.0601 µM | 13.6 µM | 0.34 µM | > 68.4 µM | 3.85 µM | > 100 µM | 3.01 µM | > 100 µM | 0.0222 µM | 14.4 µM | 0.0164 µM | > 100 µM | 0.423 µM | 5.29 µM | 0.0775 µM | 17.2 µM | 0.0664 µM | 81.4 µM
COC(=O)C1=C(CS(=O)c2ccc([N+](=O)[O-])cc2[N+](=O)[O-])ON(C)C1c1ccccc1 (stereo not drawn) |  | > 80.7 µM |  | 46 µM |  | > 100 µM |  | > 100 µM |  | > 78.9 µM |  | > 65 µM |  | 48.4 µM |  | > 100 µM |  | > 56.7 µM |  | > 100 µM
OCC1OC(n2cnc3c2NC=NC[C@H]3O)CC1O (stereo partly drawn) | > 588 µM | 500 µM and > 588 µM | > 588 µM | 500 µM and > 588 µM | > 588 µM | 475 µM and > 588 µM | > 588 µM | 497 µM and > 588 µM | > 588 µM | 500 µM and > 588 µM | > 588 µM | 500 µM and > 588 µM | 478 µM and > 588 µM | 500 µM and > 588 µM | > 588 µM | 499 µM and > 588 µM | > 588 µM | 402 µM and > 588 µM | > 588 µM | 500 µM and > 588 µM
O=C1c2cc([N+](=O)[O-])cc3cc([N+](=O)[O-])cc(c23)C(=O)N1CCCNCCNCCCN1C(=O)c2cc([N+](=O)[O-])cc3cc([N+](=O)[O-])cc(c23)C1=O |  | 0.375 µM |  | 0.278 µM |  | 8 µM |  | > 23.2 µM |  | > 30.6 µM |  | 0.849 µM |  | 4.52 µM |  | 1.97 µM |  | 1.51 µM |  | 2.41 µM
CCOC(=O)N[C@@H]1C2CC(=O)C(O2)[C@@H]1OC (stereo partly drawn) |  | > 100 µM |  | > 100 µM |  | > 100 µM |  | > 100 µM |  | > 100 µM |  | > 100 µM |  | > 100 µM |  | > 100 µM |  | > 100 µM |  | > 100 µM
O=C(CN1C(=O)S/C(=C\C(Cl)=C\c2ccccc2)C1=O)NCCc1ccc(O)cc1 | 1.78 µM | 3.5 µM | 1.74 µM | 6.96 µM | 2.1 µM | 4.29 µM | 2.55 µM | 8.06 µM | 1.52 µM | 4.56 µM | 2.31 µM | 5.68 µM | 1.82 µM | 4.22 µM | 1.8 µM | 3.4 µM | 1.85 µM | 3.33 µM | 2.29 µM | 6.15 µM
